For data set [1], the target named is T1, androgen receptor (Homo sapiens, UniProt P10275, DEL75-80/DUP470-473).
T1 construct: expressed in transfected cells; host or cells: human-derived CHP212 cells, stably transformed with pGL3-TATA-3xARE and pRC/RSV-hAR Kozak
T1 sequence (P10275 with tags, fused parts or gaps DEL75-80/DUP470-473): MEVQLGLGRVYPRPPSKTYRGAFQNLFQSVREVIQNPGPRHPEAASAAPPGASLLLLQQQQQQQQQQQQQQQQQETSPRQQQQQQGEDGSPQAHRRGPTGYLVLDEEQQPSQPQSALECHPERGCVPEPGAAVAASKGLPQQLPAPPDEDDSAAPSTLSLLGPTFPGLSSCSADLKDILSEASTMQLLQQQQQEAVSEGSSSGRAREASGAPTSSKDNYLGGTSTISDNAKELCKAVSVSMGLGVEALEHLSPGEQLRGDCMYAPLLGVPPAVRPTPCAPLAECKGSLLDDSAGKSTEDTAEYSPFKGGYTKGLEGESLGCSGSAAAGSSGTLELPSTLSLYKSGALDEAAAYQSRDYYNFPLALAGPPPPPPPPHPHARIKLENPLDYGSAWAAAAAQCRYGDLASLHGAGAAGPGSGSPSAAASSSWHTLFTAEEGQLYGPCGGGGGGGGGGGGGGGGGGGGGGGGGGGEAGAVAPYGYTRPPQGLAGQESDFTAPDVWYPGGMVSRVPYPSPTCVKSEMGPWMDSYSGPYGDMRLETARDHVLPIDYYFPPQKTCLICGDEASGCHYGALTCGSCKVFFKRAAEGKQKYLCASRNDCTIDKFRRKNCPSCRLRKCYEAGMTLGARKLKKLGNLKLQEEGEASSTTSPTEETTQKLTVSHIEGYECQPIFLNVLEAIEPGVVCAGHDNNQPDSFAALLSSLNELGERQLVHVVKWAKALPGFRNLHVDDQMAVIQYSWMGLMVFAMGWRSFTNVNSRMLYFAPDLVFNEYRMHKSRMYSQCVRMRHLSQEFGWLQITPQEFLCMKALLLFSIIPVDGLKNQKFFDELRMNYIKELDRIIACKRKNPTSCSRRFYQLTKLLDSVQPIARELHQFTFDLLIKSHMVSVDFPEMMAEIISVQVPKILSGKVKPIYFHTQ
Nature of the data set: Androgen receptor agonist activity by reporter gene assay method. The class given is cell-based. The procedure: After shaking for 10 minutes, the luciferase activity was measured by EnVision 2103 Multilabel Reader (PerkinElmer Co., Ltd.).
For orientation: In a reporter assay the amount or activity of a reporter protein is the signal.

The nature of data set [2]: Test of S9 metabolism stability in human. The format is in vitro ADME. As to conditions: human S9, NADPH, 37° C., reaction time 30 min. On the procedure:
(§1) For the inventive compound, was carried out test of a S9 metabolism stability in human, rat and mouse.
(§2) Using MINISORP(75×12) NUNC-IMMUNO tube, a 0.5 μM I.S.-added reaction stopping solution (500 μL) and a 10 mmol/L NADPH solution (50 μL) were mixed. Subsequently, a S9 mixture (445 μL) and pure water (5 μL) were added to prepare an I.S.-added blank sample. Likewise, a S9 mixture (445 μL) and a 100 μM test substance solution (5 μL) were added, preparing an calibration curve sample.
(§3) A S9 mixture (1068 μL) was dispensed into MINISORP (75×12) NUNC-IMMUNO tube. On ice water, a 100 μM test substance solution (12 μL) was added, and pre-incubation was carried out at 37° C. for 5 minutes. An aliquot (450 μL) of this was fractionated, and a […] I.S.-added reaction stopping solution (500 μL) and a 10 mmol/L NADPH solution (50 μL) were added, to obtain an unreacted sample (reaction time; 0 min). To the residue after fractionation, a 10 mmol/L NADPH solution (70 μL) was added, and incubation was carried out at 37° C. for 30 minutes, and an aliquot (500 μL) was fractionated, then, a 0.5 μM I.S.-added reaction stopping solution (500 μL) was added, preparing a reacted sample (reaction time; 30 min). […]

Data set [3] is described as follows: Test of S9 metabolism stability in rat. As to conditions: rat S9, NADPH, 37° C., reaction time 30 min. The class given is in vitro ADME. The procedure:
as §1, §2, §3

Data set [4] can be described thus: Test of S9 metabolism stability in mouse. The format is in vitro ADME. As to conditions: mouse S9, NADPH, 37° C., reaction time 30 min. The procedure: as §1, §2, §3
The mark [5] stands for this setting: agonist activity, transformed human-derived CHP212 cells with pGL3-TATA-3×ARE luciferase reporter and pRC/RSV-hAR Kozak, 24 hours, read-out: EC50.

Read-outs that look alike come from different tables or passages of the source.

In the case of `CC1CCCCN1c1cc(Br)c(C#N)s1` (stereo not drawn) [Example 9, 3-bromo-5-(2-methylpiperidin-1-yl)thiophene-2-carbonitrile], the EC50 in data set [1] (setting [5]) was determined as 450 nM.

In turn, `CCCN(CC(F)(F)F)c1cc(C(F)(F)F)c(C#N)s1` [Example 45, 5-[(propyl)(2,2,2-trifluoroethyl)amino]-3-trifluoromethylthiophene-2-carbonitrile] registered an EC50 in data set [1] of 3.1 nM.

As to `CCCN(CC#N)c1cc(Br)c(C#N)s1` [Example 28, 3-bromo-5-[(cyanomethyl)(propyl)amino]thiophene-2-carbonitrile], the EC50 in data set [1] (setting [5]) is 580 nM.

`CC1CCN(c2cc(Br)c(C#N)s2)CC1` [Example 12, 3-bromo-5-(4-methylpiperidin-1-yl)thiophene-2-carbonitrile]: in data set [1] (setting [5]), the EC50 worked out at 1500 nM.

Consider `N#Cc1sc(N2CCCCC2C(O)C(F)(F)F)cc1Br` (racemic) [Example 40, 3-bromo-5-[2-(2,2,2-trifluoro-1-hydroxyethyl)piperidin-1-yl]thiophene-2-carbonitrile], for which the EC50 in data set [1] (setting [5]) was 14 nM.

Compound `CCCN(CC(F)(F)F)c1cc(C)c(C#N)s1` [Example 46, 5-[(propyl)(2,2,2-trifluoroethyl)amino]-3-methylthiophene-2-carbonitrile] registered an EC50 in data set [1] of 25.2 nM.

`N#Cc1sc(N2CCCC2)cc1Br` [Example 8, 3-bromo-5-(pyrrolidin-1-yl)thiophene-2-carbonitrile]: the EC50 in data set [1] (setting [5]) is 1400 nM.

With `CCCN(CC(=O)O)c1cc(Br)c(C#N)s1` [Example 26, N-(4-bromo-5-cyanothiophen-2-yl)-N-propylglycine], the EC50 in data set [1] (setting [5]) is > 10000 nM.

`N#Cc1sc(N2CCCCC2C(O)C(F)(F)F)cc1C(F)(F)F` (stereo not drawn) [Example 43, 5-[2-(2,2,2-trifluoro-1-hydroxyethyl)piperidin-1-yl]-3-trifluoromethyl-thiophene-2-carbonitrile]: in data set [1], the EC50 is > 10000 nM.

For `CCCN(CC1CC1)c1cc(Br)c(C#N)s1` [Example 2, 3-bromo-5-[(cyclopropylmethyl)(propyl)amino]thiophene-2-carbonitrile], the EC50 in data set [1] (setting [5]) came out at 10.6 nM.

Compound `CCCN(CC1CC1)c1cc(C#N)c(C(F)(F)F)s1` [Example 7, 5-[(cyclopropylmethyl)(propyl)amino]-2-(trifluoromethyl)thiophene-3-carbonitrile] came in with an EC50 in data set [1] of 99.3 nM.

As to `CCCC1CCCCN1c1cc(Br)c(C#N)s1` (stereo not drawn) [Example 18, 3-bromo-5-(2-propylpiperidin-1-yl)thiophene-2-carbonitrile], the EC50 in data set [1] (setting [5]) worked out at 36.2 nM.

In the case of `CCCN(CC1CC1)c1cc(Br)c(C=O)s1` [Example 1, 3-bromo-5-[(cyclopropylmethyl)(propyl)amino]thiophene-2-carbaldehyde], the EC50 in data set [1] (setting [5]) was > 10000 nM.

With `N#Cc1sc(N2CCCCC2C#N)cc1Br` (stereo not drawn) [Example 47, 5-(2-cyanopiperidin-1-yl)-3-bromo-thiophene-2-carbonitrile], in data set [1] (setting [5]), the EC50 amounted to 1500 nM.

As for `CCC1CCCCN1c1cc(Br)c(C#N)s1` (stereo not drawn) [Example 17, 3-bromo-5-(2-ethylpiperidin-1-yl)thiophene-2-carbonitrile], in data set [1] (setting [5]), the EC50 was 4.9 nM.

With `CCCN(CC(F)(F)F)c1cc(Br)c(C#N)s1` [Example 23, 3-bromo-5-[(propyl)(2,2,2-trifluoroethyl)amino]thiophene-2-carbonitrile], in data set [1], the concentration for a half-maximal effect (EC50) is 5.4 nM.

On to `COCCN(CCOC)c1cc(Br)c(C#N)s1` [Example 16, 5-[bis(2-methoxyethyl)amino]-3-bromothiophene-2-carbonitrile], for which the EC50 in data set [1] (setting [5]) amounted to 1600 nM.

Turning to `CCCN(CC1OCCO1)c1cc(Br)c(C#N)s1` [Example 31, 3-bromo-5-[(1,3-dioxolan-2-ylmethyl)(propyl)amino]thiophene-2-carbonitrile], in data set [1] (setting [5]), the EC50 was 750 nM.

Consider `CCCN(CC=O)c1cc(Br)c(C#N)s1` [Example 32, 3-bromo-5-[(2-oxoethyl)(propyl)amino]thiophene-2-carbonitrile], for which the EC50 in data set [1] (setting [5]) was > 10000 nM.

Regarding `N#Cc1sc(N2CCCCC2C(O)C(F)(F)F)cc1Br` (stereo not drawn), the “Residual ratio (%) human” value in data set [2] turned out to be 73.4%. Also, the “Residual ratio (%) rat” value in data set [3] is recorded as 40.1%. Also, the “Residual ratio (%) mouse” value in data set [4] stood at 39.1%.

The compound `CCCN(CC1CC1)c1cc(C(F)(F)F)c(C#N)s1` [Example 5, 5-[(cyclopropylmethyl)(propyl)amino]-3-(trifluoromethyl)thiophene-2-carbonitrile] gave an EC50 in data set [1] of 11.9 nM.

In the case of `C=CCN(CC=C)c1cc(Br)c(C#N)s1` [Example 15, 3-bromo-5-(diallylamino)thiophene-2-carbonitrile], the half-maximal effective concentration (EC50) in data set [1] (setting [5]) is 13.1 nM.

For the compound `CC(C)CN(C)c1cc(Br)c(C#N)s1` [Example 13, 3-bromo-5-[(methyl)(2-methylpropyl)amino]thiophene-2-carbonitrile], the EC50 in data set [1] (setting [5]) was 1200 nM.

As to `CCCN(CC(=O)OCC)c1cc(Br)c(C#N)s1` [Example 24, N-(4-bromo-5-cyanothiophen-2-yl)-N-propylglycine ethyl ester], the EC50 in data set [1] (setting [5]) was > 10000 nM.

Consider `CC(O)C1CCCCN1c1cc(Br)c(C#N)s1` (stereo not drawn) [Example 41, 3-bromo-5-[2-(1-hydroxyethyl)piperidin-1-yl]thiophene-2-carbonitrile], for which the EC50 in data set [1] (setting [5]) stood at 560 nM.

Take `CCC1CCCC(=O)N1c1cc(Br)c(C#N)s1` (stereo not drawn) [Example 35, 3-bromo-5-(2-ethyl-6-oxopiperidin-1-yl)thiophene-2-carbonitrile]: the EC50 in data set [1] (setting [5]) is > 10000 nM.

As to `CCCN(CCC)c1cc(Br)c(C#N)s1` [Example 14, 3-bromo-5-(dipropylamino)thiophene-2-carbonitrile], in data set [1] (setting [5]), the EC50 came out at 43.3 nM.

`CCCN(CC(=O)NC)c1cc(Br)c(C#N)s1` [Example 25, N2-(4-bromo-5-cyanothiophen-2-yl)-N-methyl-N2-propylglycinamide]: in data set [1] (setting [5]), the EC50 worked out at 1500 nM.

As a reminder, the EC50 is the concentration giving half of the maximal effect.

Values taken from patent publication US20120065231A1, “THIOPHENE DERIVATIVE” (SUMITOMO CHEMICAL COMPANY LTD., priority 2009, published 2012).
